Reference: patent US8604004B2, “Moenomycin analogs, methods of synthesis, and uses thereof” (President and Fellows of Harvard College, priority 2007, dated 2013)
Converted amounts (≈) assume the structure as drawn. Read-outs that look alike come from different tables or passages of the source.

Experiments:
[1] = system: E. faecalis, bacterial strain 29212; experiment: MIC, standard microdilution assay, E. faecalis; format: cell-based; details: Enterococcus faecalis, no visible growth after 35° C. for 22 h, read-out: MIC (μg/ml) E. faecalis
Description: (§1) MIC values (μg/mL) were obtained using a standard microdilution assay.

[2] = molecular target: T1, S. aureus PBP2 (Staphylococcus aureus, UniProt Q9R744); experiment: IC50 for transglycosylase inhibition, S. aureus PBP2, [14C]-GlcNAc-labeled lipid II analogue; format: biochemical
T1 construct: made in house
T1 sequence (Q9R744 1-727): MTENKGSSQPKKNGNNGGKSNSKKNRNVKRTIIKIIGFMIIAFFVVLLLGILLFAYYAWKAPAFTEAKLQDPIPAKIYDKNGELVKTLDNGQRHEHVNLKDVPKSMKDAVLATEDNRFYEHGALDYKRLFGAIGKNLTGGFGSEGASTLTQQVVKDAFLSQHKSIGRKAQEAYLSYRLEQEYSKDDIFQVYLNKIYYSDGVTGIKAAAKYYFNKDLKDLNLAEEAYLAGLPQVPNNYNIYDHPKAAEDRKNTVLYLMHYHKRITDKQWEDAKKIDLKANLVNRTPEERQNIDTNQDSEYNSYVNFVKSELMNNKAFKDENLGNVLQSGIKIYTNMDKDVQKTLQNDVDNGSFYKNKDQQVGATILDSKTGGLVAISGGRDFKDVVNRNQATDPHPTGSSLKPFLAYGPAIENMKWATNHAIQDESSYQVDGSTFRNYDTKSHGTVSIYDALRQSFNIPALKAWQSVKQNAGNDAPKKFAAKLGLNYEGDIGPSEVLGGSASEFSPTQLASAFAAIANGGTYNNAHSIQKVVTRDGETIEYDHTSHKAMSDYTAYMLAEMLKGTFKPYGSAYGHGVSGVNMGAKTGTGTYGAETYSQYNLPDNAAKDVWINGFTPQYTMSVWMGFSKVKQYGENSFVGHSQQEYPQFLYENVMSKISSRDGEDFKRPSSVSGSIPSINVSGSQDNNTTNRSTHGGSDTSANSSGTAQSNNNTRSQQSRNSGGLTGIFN
Experimental: S. aureus PBP2 was over-expressed and purified as described^4,5. The IC50s for moenomycin and neryl compounds were carried out using the following reaction condition: (0-50 μM) and PBP2 (final concentration 30 nM) were incubated in Eppendorf tubes containing 9 μL of buffer [(50 mM HEPES buffer, 50 mM MOPS, 50 mM MES, 50 mM AcOH) at pH 5.0, 10 mM CaCl2, 20% DMSO (v/v), 250 unit/mL penicillin G] for 30 min. The reaction was initiated by adding 4 μM [^14C]-GlcNAc-labeled lipid II analogue^4 (specific activity=101 cpm/pmol) and quenched after 80 min with 10 μL of ice-cold 10 mM Tris (pH=8.0) containing 0.2% Triton X-100. The reaction mixture was immediately spotted on cellulose chromatography paper (3MM Whatmann). Products and starting material were separated using chromatography (isobutryic acid:1 N NH4OH=5:3) and quantitated by scintillation counting. The data were fit using Prism, as described^3,4.

[3] = molecular target: T2, E. faecalis PBP2a (Enterococcus faecalis, UniProt Q837Z4); experiment: IC50 for transglycosylase inhibition, E. faecalis PBP2a, [14C]-GlcNAc-labeled lipid II analogue; format: biochemical
T2 sequence (Q837Z4 1-728): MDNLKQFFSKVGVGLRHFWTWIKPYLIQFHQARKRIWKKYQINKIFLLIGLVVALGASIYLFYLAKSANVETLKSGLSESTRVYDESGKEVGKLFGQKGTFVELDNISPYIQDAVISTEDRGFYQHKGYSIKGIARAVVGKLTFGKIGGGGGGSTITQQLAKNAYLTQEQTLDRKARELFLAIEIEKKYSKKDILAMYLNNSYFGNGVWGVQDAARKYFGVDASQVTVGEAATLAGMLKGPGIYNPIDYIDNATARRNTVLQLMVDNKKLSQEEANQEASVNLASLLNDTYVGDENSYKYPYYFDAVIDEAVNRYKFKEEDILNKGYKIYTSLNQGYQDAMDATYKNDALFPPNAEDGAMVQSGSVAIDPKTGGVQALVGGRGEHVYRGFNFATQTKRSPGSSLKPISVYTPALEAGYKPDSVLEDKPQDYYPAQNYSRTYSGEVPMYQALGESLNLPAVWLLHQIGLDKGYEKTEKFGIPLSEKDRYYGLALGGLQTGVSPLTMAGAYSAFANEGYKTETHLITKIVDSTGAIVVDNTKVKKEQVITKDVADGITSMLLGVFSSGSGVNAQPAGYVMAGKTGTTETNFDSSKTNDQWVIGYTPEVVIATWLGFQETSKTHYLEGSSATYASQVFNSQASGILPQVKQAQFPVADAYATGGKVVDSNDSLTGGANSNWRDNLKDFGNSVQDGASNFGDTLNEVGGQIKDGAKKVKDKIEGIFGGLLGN
Description: The pbp2a gene was PCR-amplified from E. faecalis (CL4877) purified genomic DNA using the following primer pair: 5′-[…] AATCTTAAACAATTTTTT-3′ (SEQ ID NO: 1) and 5′[…]-3′ (SEQ ID NO: 2). The first primer introduced a NdeI restriction site (underlined), and the second primer introduced a XhoI site into the PCR product. The PCR product was subcloned into pET42 (Novagen) for expression in E. coli BL21(DE3) (Novagen) as a C-terminal His8 fusion. PBP2a was expressed after induction of a log phase culture grown at 37° C. with 1 mM IPTG and grown at 15° C. for an additional 20 h. The cells were harvested by centrifugation, and the cell pellets were resuspended in buffer A (20 mM Tris-HCl, 150 mM NaCl, pH 7.4) supplemented with 360 kU of rLysozyme (Novagen). The cells were lysed using a French pressure cell at 16,000 psi in buffer A. Freely soluble proteins were decanted and the pellet resuspended in buffer A containing 0.5% Sarkosyl to release membrane-anchored PBP2a. […] Fractions were analyzed by 12% SDS-PAGE, pooled and concentrated using a Amicon Ultra Centrifuga Filter Device (50K MW cutoff). […]
IC50 Values for PBP2a. […] Products and starting material were separated using chromatography (isobutryic acid:1 N NH4OH=5:3) and quantitated by scintillation counting. […]

[4] = system: S. aureus, bacterial strain 29213; experiment: MIC, standard microdilution assay, S. aureus; format: cell-based; details: Staphylococcus aureus, no visible growth after 35° C. for 22 h, read-out: MIC (μg/ml) S. aureus
Description: as §1

[5] = system: bacteria; details: on a molar basis, cited from earlier work
[6] = cited from earlier work

Which MIC [1] does the source give for `CC(=O)NC1[C@H](O[C@@H]2C(CO[C@@H]3OC(CO)[C@@H](O)[C@H](O)C3O)O[C@@H](OC3[C@@H](OP(=O)(O)OC[C@@H](OC/C=C(/C)CCC=C(C)C)C(=O)O)OC(C(N)=O)[C@@](C)(O)[C@@H]3OC(N)=O)C(NC(C)=O)[C@H]2O)OC(C)[C@@H](O[C@@H]2OC(C(=O)NC3=C(O)CCC3=O)[C@H](O)[C@H](O)C2O)[C@@H]1O` (stereo partly drawn) [compound 15] here?
Its MIC is > 250 µg/mL.

What about the IC50 [2] of the same compound?
The IC50 was 41.4 nM.

And the IC50 ([3]; PBP2a 52 nM, pH 7.5, 4 μM lipid II analogue, read-out: IC50 (μg/ml) E. faecalis PBP2a (converted))?
Its IC50 is 16 nM.

And the MIC [4]?
The MIC was > 250 µg/mL.

For `C=C(C/C=C(\C)CCC=C(C)C)CCC(C)(C)/C=C/CC/C(C)=C\CO[C@H](COP(=O)(O)O[C@H]1OC(C(N)=O)[C@@](C)(O)[C@H](OC(N)=O)C1O[C@@H]1OC(CO[C@@H]2OC(CO)[C@@H](O)[C@H](O)C2O)[C@@H](O[C@@H]2OC(C)[C@@H](O[C@@H]3OC(C(=O)NC4=C(O)CCC4=O)[C@H](O)[C@H](O)C3O)[C@H](O)C2NC(C)=O)[C@H](O)C1NC(C)=O)C(=O)O` (stereo partly drawn) [compound 1, Moenomycin A], which MIC [1] is on record?
The MIC was 0.063 µg/mL (≈ 0.0398 µM).

And the “potency relative to vancomycin” value ([5]; listed as Moenomycin A)?
The value was “a thousand times more potent than the antibiotic vancomycin”.

What about the “potency relative to vancomycin” value ([5]; listed as moenomycin A) of the same compound?
Its value is “a thousand times more potent than vancomycin”.

What about the IC50 [2] of the same compound?
Its IC50 is 22.1 nM.

And the IC50 [3]?
Its IC50 is 26.5 nM.

What about the “absorption upon oral administration” value ([6]; oral) of the same compound?
The value was “relatively poor”.

What about the pharmacokinetic properties ([6]; related to the lipid side chain) of the same compound?
The pharmacokinetic properties was “poor pharmacokinetic properties”.

What about the MIC [4] of the same compound?
The MIC was 0.016 µg/mL (≈ 0.0101 µM).
